Results reported in patent US6936629B2, “Compounds and methods for the treatment or prevention of flavivirus infections” (ViroChem Pharma Inc., priority 2001, dated 2005).

molecular target: HCV RNA-dependent RNA polymerase (NS5B protein) (Hepatitis C virus genotype 1b, UniProt P26663); experiment: In vitro HCV RNA-dependent RNA polymerase assay (Assay 1, polyA/oligo dT, 32P-UTP incorporation); type: biochemical; details: purified recombinant HCV NS5B, homopolymeric template/primer polyA/oligo dT; read-out: RNA pol Assay1 IC50
Sequence (P26663 2420-3010 limits assumed): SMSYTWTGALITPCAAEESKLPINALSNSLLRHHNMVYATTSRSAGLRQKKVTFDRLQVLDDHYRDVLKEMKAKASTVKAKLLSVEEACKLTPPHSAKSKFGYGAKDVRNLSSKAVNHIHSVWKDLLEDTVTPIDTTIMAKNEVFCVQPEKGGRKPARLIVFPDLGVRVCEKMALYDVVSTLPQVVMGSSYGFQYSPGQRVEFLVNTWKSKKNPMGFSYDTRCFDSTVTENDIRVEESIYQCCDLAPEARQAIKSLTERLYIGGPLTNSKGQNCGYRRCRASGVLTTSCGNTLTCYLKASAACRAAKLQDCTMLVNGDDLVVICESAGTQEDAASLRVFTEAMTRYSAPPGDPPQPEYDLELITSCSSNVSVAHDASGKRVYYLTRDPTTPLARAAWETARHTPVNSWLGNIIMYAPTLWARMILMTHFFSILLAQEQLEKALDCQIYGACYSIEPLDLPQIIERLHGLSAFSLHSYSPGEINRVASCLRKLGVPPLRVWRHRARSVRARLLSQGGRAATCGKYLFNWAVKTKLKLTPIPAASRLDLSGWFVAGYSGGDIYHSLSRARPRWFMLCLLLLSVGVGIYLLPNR
Procedure: Compounds were evaluated using an in vitro polymerase assay containing purified recombinant HCV RNA-dependent RNA polymerase (NS5B protein). HCV NS5B was expressed in insect cells using a recombinant baculovirus as vector. The experimental procedures used for the cloning, expression and purification of the HCV NS5B protein are described below. Follows, are details of the RNA-dependent RNA polymerase assays used to test the compounds.
The cDNA encoding the entire NS5B protein of HCV-Bk strain, genotype 1b, was amplified by PCR using the primers NS5Nhe5′ (5′-[…]-3′) (SEQ ID NO: 1) and XhoNS53′ (5′-[…]-3′) (SEQ ID NO: 2) and the plasmid pCD 3.8-9.4 as template (Tomei et al, 1993). NS5Nhe5′ and XhoNS53′ contain two NheI and XhoI sites (underlined sequences), respectively, at their 5′ end. The amplified DNA fragment was cloned in the bacterial expression plasmid pET-21b (Novagen) between the restriction sites NheI and XhoI, to generate the plasmid pET/NS5B. This plasmid was later used as template to […] the NS5B coding region, using the primers NS5B-H9 (5′-[…]-3′) (SEQ ID NO: 3) and NS5B-R4 (5′-[…]-3′) (SEQ ID NO: 4). NS5B-H9 spans a region of 15 nucleotides in the plasmid pET-21b followed by the translation initiation codon (ATG) and […] corresponding to the 5′ end of the NS5B coding region (nt. 7590-7607 in the HCV sequence with the accession number M58335) . NS5B-R4 contains two BamHI sites (underlined) followed by 18 nucleotides corresponding to the region around the stop codon in the HCV genome (nt. 9365-9347). The amplified sequence, of 1.8 kb, was digested with NheI and BamHI and ligated to a predigested pBlueBacII plasmid (Invitrogen) . The resulting recombinant plasmid was designated pBac/NS5B. Sf9 cells were co-transfected with 3 μg of pBac/NS5B, together with 1 μg of linearized baculovirus DNA (Invitrogen), as described in the manufacturer's protocol. Following two rounds of plaque purification, an NS5B-recombinant baculovirus, BacNS5B, was isolated. The presence of the recombinant NS5B protein was determined by western blot analysis (Harlow and Lane, 1988) of BacNS5B-infected Sf9 cells, using a rabbit polyclonal antiserum (anti-NS5B) raised against a His-tagged version of the NS5B protein expressed in E. coil. Infections of Sf9 cells with this plaque purified virus were performed in one-liter spinner flasks at a cell density of 1.2×10^6 cells/ml and a multiplicity of infection of 5.
Sf9 cells were infected as described above. Sixty hours post-infection, cells were harvested then washed twice with phosphate buffer saline (PBS). Total proteins were solubilized as described in Lohmann et al. (1997) with some modifications. In brief, proteins were extracted in three steps, S1, S2, S3, using lysis buffers (LB) I, LB II and LB III (Lohmann et al, 1997). The composition of LBII was modified to contain 0.1% triton X-100 and 150 mM NaCl to reduce the amount of solubilized NS5B protein at this step. In addition, sonication of cell extracts was avoided throughout the protocol to preserve the integrity of the protein structure.
Soluble NS5B protein in the S3 fraction was diluted to lower the NaCl concentration to 300 mM, then it incubated batchwise with DEAE sepharose beads (Amersham-Pharmacia) for 2 hrs at 4° C., as described by Behrens et al. (1996). Unbound material was cleared by centrifugation for 15 min at 4° C., at 25000 rpm using a SW41 rotor (Beckman). The supernatant was further diluted to lower the NaCl concentration to 200 mM and subsequently loaded, with a flow rate of 1 ml/min, on a 5 ml HiTrap® heparin column (Amersham-Pharmacia) connected to an FPLC® system (Amersham-Pharmacia). Bound proteins were eluted in 1 ml fractions, using a continuous NaCl gradient of 0.2 to 1 M, over a 25 ml volume. […]

SMILES	IC50
CN(C(=O)c1ccc(Cl)cc1)c1nc(-c2ccccc2)sc1C(=O)O [Compound #14, 4-[(4-Chloro-benzoyl)-methyl-amino]-2-phenyl-thiazole-5-carboxylic acid]	< 5 µM
O=C(Nc1nc(-c2ccccc2)sc1C(=O)O)c1ccc(Cl)cc1 [Compound #7, 4-(4-Chloro-benzoylamino)-2-phenyl-thiazole-5-carboxylic acid]	> 20 µM
O=C(Nc1nc(-c2ccccc2)sc1C(=O)O)c1ccc(Cl)cc1 [Compound #15]	5 to 20 µM
CCN(C(=O)c1ccc(Cl)cc1Cl)c1nc(-c2ccccc2)sc1C(=O)O [Compound #4, 4-[(2,4-Dichloro-benzoyl)-ethyl-amino]-2-phenyl-thiazole-5-carboxylic acid]	< 5 µM
Cc1ccc(S(=O)(=O)Nc2nc(-c3ccccc3)sc2C(=O)O)c(C)c1 [Compound #9, 4-(2,4-Dimethyl-benzenesulfonylamino)-2-phenyl-thiazole-5-carboxylic acid]	5 to 20 µM
Cc1ccc(S(=O)(=O)Nc2nc(-c3ccccc3)sc2C(=O)O)cc1 [Compound #10, 2-Phenyl-4-(toluene-4-sulfonylamino)-thiazole-5-carboxylic acid]	> 20 µM
CN(C(=O)c1ccccc1Cl)c1nc(-c2ccccc2)sc1C(=O)O [Compound #13, 4-[(2-Chloro-benzoyl)-methyl-amino]-2-phenyl-thiazole-5-carboxylic acid]	5 to 20 µM
Cc1ccc(C(=O)N(c2nc(-c3ccccc3)sc2C(=O)O)C(C)C)cc1 [Compound #6, 4-[Isopropyl-(4-methyl-benzoyl)-amino]-2-phenyl-thiazole-5-carboxylic acid]	< 5 µM
CC(C)N(C(=O)c1ccc(Cl)cc1Cl)c1nc(-c2ccccc2)sc1C(=O)O [Compound #3, 4-[(2,4-Dichloro-benzoyl)-isopropyl-amino]-2-phenyl-thiazole-5-carboxylic acid]	< 5 µM
CN(C(=O)c1ccc(Cl)cc1Cl)c1nc(-c2ccccc2)sc1C(=O)O [Compound #2, 4-[(2,4-Dichloro-benzoyl)-methyl-amino]-2-phenyl-thiazole-5-carboxylic acid]	< 5 µM
Cc1ccccc1S(=O)(=O)Nc1nc(-c2ccccc2)sc1C(=O)O [Compound #5, 2-Phenyl-4-(toluene-2-sulfonylamino)-thiazole-5-carboxylic acid]	5 to 20 µM
Cc1ccc(C(=O)Nc2nc(-c3ccccc3)sc2C(=O)O)c(C)c1 [Compound #8, 4-(2,4-Dimethyl-benzoylamino)-2-phenyl-thiazole-5-carboxylic acid]	> 20 µM
Cc1ccc(C(=O)N(C)c2nc(N3CCOCC3)sc2C(=O)O)c(C)c1 [Compound #16, 4-[(2,4-DIMETHYL-BENZOYL)-METHYL-AMINO]-2-MORPHOLIN-4-YL-THIAZOLE-5-CARBOXYLIC ACID]	5 to 20 µM
Cc1ccc(C(=O)N(C)c2nc(-c3ccccc3)sc2C(=O)O)cc1 [Compound #1, 4-[Methyl-(4-methyl-benzoyl)-amino]-2-phenyl-thiazole-5-carboxylic acid]	< 5 µM
Cc1cccc(C(=O)Nc2nc(-c3ccccc3)sc2C(=O)O)c1 [Compound #12, 4-(3-Methyl-benzoylamino)-2-phenyl-thiazole-5-carboxylic acid]	> 20 µM
O=C(Nc1nc(-c2ccccc2)sc1C(=O)O)c1ccc(Cl)cc1Cl [Compound #11, 4-(2,4-Dichloro-benzoylamino)-2-phenyl-thiazole-5-carboxylic acid]	5 to 20 µM
